According to patent publication US11214803B2, “Modulators of YAP1 expression” (Ionis Pharmaceuticals, Inc., priority 2019, dated 2022):
Strand notation (5' to 3'): a small letter for the sugar, then the base; units joined by * are phosphorothioate-linked, units joined directly phosphodiester-linked; [ ] holds rarer units or linkages, { } end groups; capitals alone tell only the bases. k = constrained ethyl (cEt); [5mC] = 5-methylcytosine; d = 2'-deoxy (DNA)

System: Yap1 mRNA
Assay: Dose-dependent inhibition of human Yap1 in A-431 cells (Example 7, 10,000 cells per well, RTS36584)
Assay type: cell-based
Settings: free uptake
In short: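 Yap1 mRNA was expressed as percent of untreated control after normalization to total RNA (RIBOGREEN), and IC50 was derived by log/linear linear regression. The read-out used primer-probe set RTS36584 roughly 48 hours after free-uptake dosing of oligonucleotides into A-431 cells (10,000 cells/well).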

[1] = Table 56, 15.6 nM, A-431 cells 10,000 cells per well, 48 hours
[2] = Table 56, 62.5 nM, A-431 cells 10,000 cells per well, 48 hours
[3] = Table 56, 4000.00 nM, A-431 cells 10,000 cells per well, 48 hours
[4] = Table 56, A-431 cells 10,000 cells per well
[5] = Table 60, 15.6 nM, A-431 cells 10,000 cells per well, 48 hours
[6] = Table 60, 62.5 nM, A-431 cells 10,000 cells per well, 48 hours
[7] = Table 60, 4000.00 nM, A-431 cells 10,000 cells per well, 48 hours
[8] = Table 60, A-431 cells 10,000 cells per well
[9] = Table 57, 15.6 nM, A-431 cells 10,000 cells per well, 48 hours
[10] = Table 57, 62.5 nM, A-431 cells 10,000 cells per well, 48 hours
[11] = Table 57, 4000.00 nM, A-431 cells 10,000 cells per well, 48 hours
[12] = Table 57, A-431 cells 10,000 cells per well
[13] = Table 58, 15.6 nM, A-431 cells 10,000 cells per well, 48 hours
[14] = Table 58, 62.5 nM, A-431 cells 10,000 cells per well, 48 hours
[15] = Table 58, 4000.00 nM, A-431 cells 10,000 cells per well, 48 hours
[16] = Table 58, A-431 cells 10,000 cells per well
[17] = 15.6 nM, A-431 cells, 10,000 cells per well, approximately 48 hours
[18] = 62.5 nM, A-431 cells, 10,000 cells per well, approximately 48 hours
[19] = 4000.00 nM, A-431 cells, 10,000 cells per well, approximately 48 hours
[20] = A-431 cells, approximately 48 hours, linear regression on log/linear plot

Substance: 958377 (antisense kG*k[5mC]*kT*dG*dG*dG*dA*dT*dT*dG*dA*dT*dA*kT*kT*k[5mC]) [compound 958377]
- Yap1 mRNA, % UTC [1]: 90 % UTC
- Yap1 mRNA, % UTC [2]: 60 % UTC
- Yap1 mRNA, % UTC [3]: 17 % UTC
- IC50 [4]: 130 nM

Substance: 958523 (kT*kT*k[5mC]*d[5mC]*dA*dA*dT*d[5mC]*dG*dA*dG*dA*d[5mC]*kT*kT*kA; antisense) [compound 958523]
- Yap1 mRNA, % UTC [5]: 86 % UTC
- Yap1 mRNA, % UTC [6]: 64 % UTC
- Yap1 mRNA, % UTC [7]: 12 % UTC
- IC50 [8]: 100 nM

Substance: 958726 (k[5mC]*kT*kG*dT*d[5mC]*dA*dG*dT*dT*dA*dT*d[5mC]*d[5mC]*kT*kA*kT; antisense) [compound 958726]
- Yap1 mRNA, % UTC [1]: 99 % UTC
- Yap1 mRNA, % UTC [2]: 70 % UTC
- Yap1 mRNA, % UTC [3]: 16 % UTC
- IC50 [4]: 170 nM

Substance: 958786 (kT*kA*kT*dG*dT*d[5mC]*d[5mC]*dT*dA*d[5mC]*dT*dT*dT*k[5mC]*k[5mC]*k[5mC]; antisense) [compound 958786]
- Yap1 mRNA, % UTC [9]: 106 % UTC
- Yap1 mRNA, % UTC [10]: 84 % UTC
- Yap1 mRNA, % UTC [11]: 25 % UTC
- IC50 [12]: 300 nM

Substance: 958472 (kT*k[5mC]*k[5mC]*dT*dT*dA*dG*dA*dT*d[5mC]*d[5mC]*dT*dT*k[5mC]*kA*k[5mC]; antisense) [compound 958472]
- Yap1 mRNA, % UTC [13]: 92 % UTC
- Yap1 mRNA, % UTC [14]: 63 % UTC
- Yap1 mRNA, % UTC [15]: 23 % UTC
- IC50 [16]: 200 nM

Substance: 958551 (k[5mC]*kT*k[5mC]*d[5mC]*dT*dG*dT*dA*dG*dA*d[5mC]*dA*d[5mC]*kA*kT*kA; antisense) [compound 958551]
- Yap1 mRNA, % UTC [9]: 95 % UTC
- Yap1 mRNA, % UTC [10]: 73 % UTC
- Yap1 mRNA, % UTC [11]: 14 % UTC
- IC50 [12]: 200 nM

Substance: 958785 (kG*k[5mC]*kA*dA*dT*d[5mC]*d[5mC]*dA*d[5mC]*dA*dA*dT*dT*k[5mC]*k[5mC]*kA; antisense) [compound 958785]
- Yap1 mRNA, % UTC [17]: 78 % UTC
- Yap1 mRNA, % UTC [18]: 52 % UTC
- Yap1 mRNA, % UTC [19]: 6 % UTC
- IC50 [20]: 100 nM

Substance: 958555 (kG*k[5mC]*kT*dT*dA*dT*dA*dT*dT*dG*dA*dA*dG*kA*kG*kT; antisense) [compound 958555]
- Yap1 mRNA, % UTC [17]: 99 % UTC
- Yap1 mRNA, % UTC [18]: 73 % UTC
- Yap1 mRNA, % UTC [19]: 13 % UTC
- IC50 [20]: 200 nM

Substance: 958718 (kG*kA*kA*d[5mC]*dA*d[5mC]*dT*dA*dT*dA*dG*d[5mC]*dT*kT*kG*kG; antisense) [compound 958718]
- Yap1 mRNA, % UTC [5]: 104 % UTC
- Yap1 mRNA, % UTC [6]: 80 % UTC
- Yap1 mRNA, % UTC [7]: 24 % UTC
- IC50 [8]: 200 nM

Substance: 958525 (kA*kT*kG*dA*dA*dG*dG*dT*dA*dA*dA*d[5mC]*d[5mC]*kA*k[5mC]*kT; antisense) [compound 958525]
- Yap1 mRNA, % UTC [17]: 94 % UTC
- Yap1 mRNA, % UTC [18]: 57 % UTC
- Yap1 mRNA, % UTC [19]: 8 % UTC
- IC50 [20]: 100 nM

Substance: 958537 (k[5mC]*kA*kG*dG*dG*dT*d[5mC]*dA*dA*dT*dT*dT*dT*k[5mC]*kA*kG; antisense) [compound 958537]
- Yap1 mRNA, % UTC [13]: 100 % UTC
- Yap1 mRNA, % UTC [14]: 56 % UTC
- Yap1 mRNA, % UTC [15]: 11 % UTC
- IC50 [16]: 100 nM

Substance: 958600 (kG*kT*kA*dG*dA*dT*d[5mC]*dT*dA*dA*dG*dA*dA*kG*k[5mC]*k[5mC]; antisense) [compound 958600]
- Yap1 mRNA, % UTC [17]: 69 % UTC
- Yap1 mRNA, % UTC [18]: 44 % UTC
- Yap1 mRNA, % UTC [19]: 14 % UTC
- IC50 [20]: 50 nM

Substance: 958587 (kG*kG*kT*dG*dA*d[5mC]*dT*dG*dA*dA*dA*d[5mC]*dT*k[5mC]*kT*kA; antisense) [compound 958587]
- Yap1 mRNA, % UTC [13]: 94 % UTC
- Yap1 mRNA, % UTC [14]: 49 % UTC
- Yap1 mRNA, % UTC [15]: 7 % UTC
- IC50 [16]: 100 nM

Substance: 958529 (k[5mC]*kA*kA*dG*dT*d[5mC]*dT*dT*dG*dT*dA*dA*dG*kT*kA*kA; antisense) [compound 958529]
- Yap1 mRNA, % UTC (Table 61, 15.6 nM, A-431 cells 10,000 cells per well, 48 hours): 103 % UTC
- Yap1 mRNA, % UTC (Table 61, 62.5 nM, A-431 cells 10,000 cells per well, 48 hours): 64 % UTC
- Yap1 mRNA, % UTC (Table 61, 4000.00 nM, A-431 cells 10,000 cells per well, 48 hours): 11 % UTC
- IC50 (Table 61, A-431 cells 10,000 cells per well): 100 nM

Substance: 958767 (kA*k[5mC]*kG*dA*dA*dT*dA*dA*dG*dG*d[5mC]*dA*dT*kT*kA*kG; antisense) [compound 958767]
- Yap1 mRNA, % UTC (Table 59, 15.6 nM, A-431 cells 10,000 cells per well, 48 hours): 101 % UTC
- Yap1 mRNA, % UTC (Table 59, 62.5 nM, A-431 cells 10,000 cells per well, 48 hours): 57 % UTC
- Yap1 mRNA, % UTC (Table 59, 4000.00 nM, A-431 cells 10,000 cells per well, 48 hours): 10 % UTC
- IC50 (Table 59, A-431 cells 10,000 cells per well): 100 nM
